Assay results taken from patent US20260027116A1, “Methods of Treating Chronic Graft-Versus-Host Disease Following Allogeneic Hematopoietic Stem Cell Transplantation” (Kadmon Corporation, LLC, priority 2022, published 2026).

Tested on: patients with cGVHD

CC(C)NC(=O)COc1cccc(-c2nc(Nc3ccc4[nH]ncc4c3)c3ccccc3n2)c1 [Belumosudil, 2-{3-[4-(1H-indazol-5-ylamino)-2-quinazolinyl]phenoxy}-N-(propan-2-yl) acetamide]
Urinary retention: Affected/At Risk (%) (Cohort 2 200 mg BID): 1/16 (6.25%)
Urinary tract infection: # Events (Cohort 2 200 mg BID): 2
Urinary tract infection: Affected/At Risk (%) (Cohort 2 200 mg BID): 2/16 (12.5%)
Urinary tract pain: # Events (Cohort 2 200 mg BID): 1
Urinary tract pain: Affected/At Risk (%) (Cohort 2 200 mg BID): 1/16 (6.25%)
Urine output decreased: # Events (Cohort 2 200 mg BID): 1
Urine output decreased: Affected/At Risk (%) (Cohort 2 200 mg BID): 1/16 (6.25%)
Vascular access complication: # Events (Cohort 2 200 mg BID): 1
Vascular access complication: Affected/At Risk (%) (Cohort 2 200 mg BID): 1/16 (6.25%)
Vertigo: # Events (Cohort 2 200 mg BID): 0
Vertigo: Affected/At Risk (%) (Cohort 2 200 mg BID): 0/16 (0%)
Vision blurred: # Events (Cohort 2 200 mg BID): 2
Vision blurred: Affected/At Risk (%) (Cohort 2 200 mg BID): 2/16 (12.5%)
Vomiting: # Events (Cohort 2 200 mg BID): 3
Vomiting: Affected/At Risk (%) (Cohort 2 200 mg BID): 3/16 (18.75%)
Weight decreased: # Events (Cohort 2 200 mg BID): 0
Weight decreased: Affected/At Risk (%) (Cohort 2 200 mg BID): 0/16 (0%)
Weight increased: # Events (Cohort 2 200 mg BID): 2
Weight increased: Affected/At Risk (%) (Cohort 2 200 mg BID): 1/16 (6.25%)
White blood cell count decreased: # Events (Cohort 2 200 mg BID): 0
White blood cell count decreased: Affected/At Risk (%) (Cohort 2 200 mg BID): 0/16 (0%)
Abdominal distension: # Events (Cohort 3 400 mg QD): 1
Abdominal distension: Affected/At Risk (%) (Cohort 3 400 mg QD): 1/21 (4.76%)
Abdominal pain upper: # Events (Cohort 3 400 mg QD): 0
Abdominal pain upper: Affected/At Risk (%) (Cohort 3 400 mg QD): 0/21 (0%)
Abdominal pain: # Events (Cohort 3 400 mg QD): 6
Abdominal pain: Affected/At Risk (%) (Cohort 3 400 mg QD): 4/21 (19.05%)
Actinic keratosis: # Events (Cohort 3 400 mg QD): 1
Actinic keratosis: Affected/At Risk (%) (Cohort 3 400 mg QD): 1/21 (4.76%)
Acute kidney injury: # Events (Cohort 3 400 mg QD): 6
Acute kidney injury: Affected/At Risk (%) (Cohort 3 400 mg QD): 2/21 (9.52%)
Acute respiratory distress syndrome: # Events (Cohort 3 400 mg QD): 0
Acute respiratory distress syndrome: Affected/At Risk (%) (Cohort 3 400 mg QD): 0/21 (0%)
Adrenal insufficiency: # Events (Cohort 3 400 mg QD): 0
Adrenal insufficiency: Affected/At Risk (%) (Cohort 3 400 mg QD): 0/21 (0%)
Alanine aminotransferase increased: # Events (Cohort 3 400 mg QD): 2
Alanine aminotransferase increased: Affected/At Risk (%) (Cohort 3 400 mg QD): 2/21 (9.52%)
All grade ALT/AST increased, No. (%) (Cohort 3 400 mg QD): 2 (10)
All grade Cough, No. (%) (Cohort 3 400 mg QD): 7 (33)
All grade Diarrhea, No. (%) (Cohort 3 400 mg QD): 7 (33)
All grade Dyspnea, No. (%) (Cohort 3 400 mg QD): 7 (33)
All grade Fatigue, No. (%) (Cohort 3 400 mg QD): 9 (43)
All grade Headache, No. (%) (Cohort 3 400 mg QD): 6 (29)
All grade Hypertension, No. (%) (Cohort 3 400 mg QD): 4 (19)
All grade Nausea, No. (%) (Cohort 3 400 mg QD): 8 (38)
All grade Peripheral edema, No. (%) (Cohort 3 400 mg QD): 6 (29)
All grade URI, No. (%) (Cohort 3 400 mg QD): 7 (33)
All-Cause Mortality, % (Cohort 3 400 mg QD): (14.29%)
All-Cause Mortality, Affected/At Risk (Cohort 3 400 mg QD): 3/21
Anaemia: # Events (Cohort 3 400 mg QD): 0
Anaemia: Affected/At Risk (%) (Cohort 3 400 mg QD): 0/21 (0%)
Anal incontinence: # Events (Cohort 3 400 mg QD): 0
Anal incontinence: Affected/At Risk (%) (Cohort 3 400 mg QD): 0/21 (0%)
Anxiety: # Events (Cohort 3 400 mg QD): 3
Anxiety: Affected/At Risk (%) (Cohort 3 400 mg QD): 3/21 (14.29%)
Any AE, No. (%) (Cohort 3 400 mg QD): 16 (100)
Arthralgia: # Events (Cohort 3 400 mg QD): 6
Arthralgia: Affected/At Risk (%) (Cohort 3 400 mg QD): 5/21 (23.81%)
Aspartate aminotransferase increased: # Events (Cohort 3 400 mg QD): 1
Aspartate aminotransferase increased: Affected/At Risk (%) (Cohort 3 400 mg QD): 1/21 (4.76%)
Asthenia: # Events (Cohort 3 400 mg QD): 0
Asthenia: Affected/At Risk (%) (Cohort 3 400 mg QD): 0/21 (0%)
Atelectasis: # Events (Cohort 3 400 mg QD): 0
Atelectasis: Affected/At Risk (%) (Cohort 3 400 mg QD): 0/21 (0%)
Back pain: # Events (Cohort 3 400 mg QD): 1
Back pain: Affected/At Risk (%) (Cohort 3 400 mg QD): 1/21 (4.76%)
Balance disorder: # Events (Cohort 3 400 mg QD): 0
Balance disorder: Affected/At Risk (%) (Cohort 3 400 mg QD): 0/21 (0%)
Basal cell carcinoma: # Events (Cohort 3 400 mg QD): 0
Basal cell carcinoma: Affected/At Risk (%) (Cohort 3 400 mg QD): 0/21 (0%)
Benign prostatic hyperplasia: # Events (Cohort 3 400 mg QD): 0
Benign prostatic hyperplasia: Affected/At Risk (%) (Cohort 3 400 mg QD): 0/21 (0%)
Blepharitis: # Events (Cohort 3 400 mg QD): 2
Blepharitis: Affected/At Risk (%) (Cohort 3 400 mg QD): 1/21 (4.76%)
Blister: # Events (Cohort 3 400 mg QD): 1
Blister: Affected/At Risk (%) (Cohort 3 400 mg QD): 1/21 (4.76%)
Blood alkaline phosphatase increased: # Events (Cohort 3 400 mg QD): 0
Blood alkaline phosphatase increased: Affected/At Risk (%) (Cohort 3 400 mg QD): 0/21 (0%)
Blood chloride decreased: # Events (Cohort 3 400 mg QD): 0
Blood chloride decreased: Affected/At Risk (%) (Cohort 3 400 mg QD): 0/21 (0%)
Blood cholesterol increased: # Events (Cohort 3 400 mg QD): 1
Blood cholesterol increased: Affected/At Risk (%) (Cohort 3 400 mg QD): 1/21 (4.76%)
Blood creatine increased: # Events (Cohort 3 400 mg QD): 0
Blood creatine increased: Affected/At Risk (%) (Cohort 3 400 mg QD): 0/21 (0%)
Blood creatine phosphokinase increased: # Events (Cohort 3 400 mg QD): 0
Blood creatine phosphokinase increased: Affected/At Risk (%) (Cohort 3 400 mg QD): 0/21 (0%)
Blood creatinine increased: # Events (Cohort 3 400 mg QD): 2
Blood creatinine increased: Affected/At Risk (%) (Cohort 3 400 mg QD): 2/21 (9.52%)
Blood loss anaemia: # Events (Cohort 3 400 mg QD): 0
Blood loss anaemia: Affected/At Risk (%) (Cohort 3 400 mg QD): 0/21 (0%)
Bronchial secretion retention: # Events (Cohort 3 400 mg QD): 0
Bronchial secretion retention: Affected/At Risk (%) (Cohort 3 400 mg QD): 0/21 (0%)
Bronchitis: # Events (Cohort 3 400 mg QD): 1
Bronchitis: Affected/At Risk (%) (Cohort 3 400 mg QD): 1/21 (4.76%)
Bronchoscopy: # Events (Cohort 3 400 mg QD): 0
Bronchoscopy: Affected/At Risk (%) (Cohort 3 400 mg QD): 0/21 (0%)
Catheter site haemorrhage: # Events (Cohort 3 400 mg QD): 0
Catheter site haemorrhage: Affected/At Risk (%) (Cohort 3 400 mg QD): 0/21 (0%)
Chills: # Events (Cohort 3 400 mg QD): 0
Chills: Affected/At Risk (%) (Cohort 3 400 mg QD): 0/21 (0%)
Chronic kidney disease: # Events (Cohort 3 400 mg QD): 0
Chronic kidney disease: Affected/At Risk (%) (Cohort 3 400 mg QD): 0/21 (0%)
Conjunctival haemorrhage: # Events (Cohort 3 400 mg QD): 1
Conjunctival haemorrhage: Affected/At Risk (%) (Cohort 3 400 mg QD): 1/21 (4.76%)
Conjunctivitis: # Events (Cohort 3 400 mg QD): 3
Conjunctivitis: Affected/At Risk (%) (Cohort 3 400 mg QD): 3/21 (14.29%)
Constipation: # Events (Cohort 3 400 mg QD): 4
Constipation: Affected/At Risk (%) (Cohort 3 400 mg QD): 3/21 (14.29%)
Contrast media allergy: # Events (Cohort 3 400 mg QD): 0
Contrast media allergy: Affected/At Risk (%) (Cohort 3 400 mg QD): 0/21 (0%)
Contusion: # Events (Cohort 3 400 mg QD): 4
Contusion: Affected/At Risk (%) (Cohort 3 400 mg QD): 3/21 (14.29%)
Corneal abrasion: # Events (Cohort 3 400 mg QD): 0
Corneal abrasion: Affected/At Risk (%) (Cohort 3 400 mg QD): 0/21 (0%)
Corneal infection: # Events (Cohort 3 400 mg QD): 0
Corneal infection: Affected/At Risk (%) (Cohort 3 400 mg QD): 0/21 (0%)
Cough: # Events (Cohort 3 400 mg QD): 9
Cough: Affected/At Risk (%) (Cohort 3 400 mg QD): 7/21 (33.33%)
Death, No. (%) (Cohort 3 400 mg QD): 2 (10)
Decreased appetite: # Events (Cohort 3 400 mg QD): 4
Decreased appetite: Affected/At Risk (%) (Cohort 3 400 mg QD): 4/21 (19.05%)
Dehydration: # Events (Cohort 3 400 mg QD): 2
Dehydration: Affected/At Risk (%) (Cohort 3 400 mg QD): 2/21 (9.52%)
Depression: # Events (Cohort 3 400 mg QD): 3
Depression: Affected/At Risk (%) (Cohort 3 400 mg QD): 3/21 (14.29%)
Diarrhoea: # Events (Cohort 3 400 mg QD): 11
Diarrhoea: Affected/At Risk (%) (Cohort 3 400 mg QD): 7/21 (33.33%)
Dizziness: # Events (Cohort 3 400 mg QD): 2
Dizziness: Affected/At Risk (%) (Cohort 3 400 mg QD): 2/21 (9.52%)
Drug eruption: # Events (Cohort 3 400 mg QD): 0
Drug eruption: Affected/At Risk (%) (Cohort 3 400 mg QD): 0/21 (0%)
Drug-related AE, No. (%) (Cohort 3 400 mg QD): 14 (67)
Drug-related SAE, No. (%) (Cohort 3 400 mg QD): 0
Dry eye: # Events (Cohort 3 400 mg QD): 2
Dry eye: Affected/At Risk (%) (Cohort 3 400 mg QD): 2/21 (9.52%)
Dry skin: # Events (Cohort 3 400 mg QD): 1
Dry skin: Affected/At Risk (%) (Cohort 3 400 mg QD): 1/21 (4.76%)
Dyspepsia: # Events (Cohort 3 400 mg QD): 1
Dyspepsia: Affected/At Risk (%) (Cohort 3 400 mg QD): 1/21 (4.76%)
Dysphagia: # Events (Cohort 3 400 mg QD): 3
Dysphagia: Affected/At Risk (%) (Cohort 3 400 mg QD): 2/21 (9.52%)
Dyspnoea exertional: # Events (Cohort 3 400 mg QD): 0
Dyspnoea exertional: Affected/At Risk (%) (Cohort 3 400 mg QD): 0/21 (0%)
Dyspnoea: # Events (Cohort 3 400 mg QD): 6
Dyspnoea: Affected/At Risk (%) (Cohort 3 400 mg QD): 6/21 (28.57%)
Embolism: # Events (Cohort 3 400 mg QD): 1
Embolism: Affected/At Risk (%) (Cohort 3 400 mg QD): 1/21 (4.76%)
Enamel anomaly: # Events (Cohort 3 400 mg QD): 0
Enamel anomaly: Affected/At Risk (%) (Cohort 3 400 mg QD): 0/21 (0%)
Epidural lipomatosis: # Events (Cohort 3 400 mg QD): 0
Epidural lipomatosis: Affected/At Risk (%) (Cohort 3 400 mg QD): 0/21 (0%)
Epstein-Barr virus infection: # Events (Cohort 3 400 mg QD): 0
Epstein-Barr virus infection: Affected/At Risk (%) (Cohort 3 400 mg QD): 0/21 (0%)
Erectile dysfunction: # Events (Cohort 3 400 mg QD): 0
Erectile dysfunction: Affected/At Risk (%) (Cohort 3 400 mg QD): 0/21 (0%)
Eye irritation: # Events (Cohort 3 400 mg QD): 0
Eye irritation: Affected/At Risk (%) (Cohort 3 400 mg QD): 0/21 (0%)
Eye pain: # Events (Cohort 3 400 mg QD): 0
Eye pain: Affected/At Risk (%) (Cohort 3 400 mg QD): 0/21 (0%)
Eye pruritus: # Events (Cohort 3 400 mg QD): 0
Eye pruritus: Affected/At Risk (%) (Cohort 3 400 mg QD): 0/21 (0%)
Fall: # Events (Cohort 3 400 mg QD): 1
Fall: Affected/At Risk (%) (Cohort 3 400 mg QD): 1/21 (4.76%)
Fatigue: # Events (Cohort 3 400 mg QD): 14
Fatigue: Affected/At Risk (%) (Cohort 3 400 mg QD): 10/21 (47.62%)
Flatulence: # Events (Cohort 3 400 mg QD): 1
Flatulence: Affected/At Risk (%) (Cohort 3 400 mg QD): 1/21 (4.76%)
Flushing: # Events (Cohort 3 400 mg QD): 0
Flushing: Affected/At Risk (%) (Cohort 3 400 mg QD): 0/21 (0%)
